Data from patent US8389545B2, “Quinolone M1 receptor positive allosteric modulators” (Merck, Sharp & Dohme, Corp., priority 2005, dated 2013).

Molecular target: T1, acetylcholine muscarinic M1 receptor (Homo sapiens, UniProt P11229)
T1 construct: expressed in transfected cells; host or cells: CHOnfat cells (CHO; Geneticin selection)
T1 sequence (P11229 1-460): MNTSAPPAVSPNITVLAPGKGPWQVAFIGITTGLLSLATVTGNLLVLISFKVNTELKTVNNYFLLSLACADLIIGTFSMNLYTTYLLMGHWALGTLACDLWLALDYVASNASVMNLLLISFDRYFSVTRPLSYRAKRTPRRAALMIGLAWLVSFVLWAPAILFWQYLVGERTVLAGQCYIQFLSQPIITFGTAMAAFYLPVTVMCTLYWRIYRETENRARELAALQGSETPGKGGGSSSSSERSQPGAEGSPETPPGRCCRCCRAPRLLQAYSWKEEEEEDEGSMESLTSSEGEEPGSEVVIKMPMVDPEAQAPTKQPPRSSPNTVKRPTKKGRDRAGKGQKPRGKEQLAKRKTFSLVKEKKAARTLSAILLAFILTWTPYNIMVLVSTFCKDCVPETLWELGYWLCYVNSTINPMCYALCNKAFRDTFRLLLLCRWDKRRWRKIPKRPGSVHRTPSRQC
Assay: muscarinic FLIPR assay: intracellular calcium in CHOnfat/hM1 cells with EC20 acetylcholine
Assay type: cell-based
Details: FLIPR Ca2+, 4 min preincubation then EC20 acetylcholine (3 nM final)
Method: The assay studies the effect of one or several concentrations of test compounds on basal or acetylcholine-stimulated Ca^2+ levels using FLIPR.
Compounds are prepared and subjected to a preincubation period of 4 min. Thereafter, a single EC20 concentration of acetylcholine is added to each well (3 nM final). The intracellular Ca^2+ level of each sample is measured and compared to an acetylcholine control to determine any modulatory activity.
Cells: CHOnfat/hM1, hM2, hM3 or hM4 cells are plated 24 hr before the assay at a density of 18,000 cells/well (100 μL) in a 384 well plate. CHOnfat/hM1 and CHOnfat/hM3 Growth Medium: 90% DMEM (Hi Glucose); 10% HI FBS; 2 mM L-glutamine; 0.1 mM NEAA; Pen-Strep; and 1 mg/ml Geneticin, are added. For M2Gqi5CHOnfat and M4Gqi5CHOnfat cells, an additional 600 ug/ml hygromycin is added.
Equipment: 384 well plate, 120 μL addition plate; 96-well Whatman 2 ml Uniplate Incubator, 37° C., 5% CO2; Skatron EMBLA-384 Plate Washer; Multimek Pipetting System; Genesis Freedom 200 System; Mosquito System; Temo Nanolitre Pipetting System; and FLIPR^384 Fluorometric Imaging Plate Reader System are used.
Buffers. Assay Buffer: Hanks Balanced Salt Solution, with 20 mM Hepes, 2.5 mM Probenecid (Sigma P-8761) first dissolved in 1N NaOH, 1% Bovine Serum Albumin (Sigma A-9647). Dye Loading Buffer: Assay Buffer plus 1% Fetal Bovine Serum and Fluo-4AM/Pluronic Acid Mixture. 2 mM Fluo-4AM ester stock in DMSO (Molecular Probes F-14202) Concentration of 2 uM in buffer for a final concentration of 1 μM in Assay. 20% Pluronic Acid Solution stock, with concentration of 0.04% in Buffer, 0.02% in Assay.
65 μL of 2 mM Fluo-4AM are mixed with 130 μL of 20% Pluronic Acid. The resulting solution and 650 μL FBS is added to the assay buffer for a total volume of 65 mL. Positive Controls: 4-Br-A23187: 10 mM in DMSO; final concentration 10 μM. Acetylcholine: 10 mM in water, working stock at both 20 uM and 30 uM in assay buffer, final concentration of 10 μM. This is used to check the maximum stimulation of the CHOK1/hM1 cells. 20 uM (2×) acetylcholine is added in the preincubation part of the assay, and the 30 uM (3×) stock is added in the second part. (EC20) Acetylcholine: 10 mM in water, working stock of 9 nM (3×), and final concentration in assay is 3 nM. This is used after the preincubation with test compounds. Addition of the EC20 Acetylcholine to each well with a test compound will ascertain any modulator activity. 24 wells contain 3 nM Acetylcholine alone as a control.
Determining Activity of Putative Compounds: Screening Plate: Compounds are titrated in 96-well plates (columns 2-11), 100% DMSO, started at a concentration of 15 mM (150× stock concentration), and 3-fold serial dilutions using Genesis Freedom200 System. Four 96-well plates are combined into a 384-well plate using Mosquito Nanolitre Pipetting System by transferring 1 ul of serial diluted compounds to each well, and 1 mM acetylcholine (100× stock concentration) were added as a control. Using Temo, 49 μl assay buffer is added to each well of the 384-well plate right before assay.
In a 96-well Whatman 2 ml Uniplate, 9 nM Acetylcholine (3×) is pipetted into wells corresponding to the screening compounds, and into control wells. The 30 uM acetylcholine control (3×) is added into control wells, and the 3× agonist plate is transferred into a 384 well plate. Cells are washed three times with 100 μL of buffer, leaving […] of buffer in each well. Using Multimek, 30 μL of Dye Loading Buffer is added into each well and incubated at 37° C., 5% CO2 for up to one hr.
After 60 min, the cells are washed three times with 100 μL of buffer, leaving 30 μL of buffer in each well. The cell plate, screening plate, and agonist addition plates are placed on the platform in the FLIPR and the door closed. A signal test to check background fluorescence and basal fluorescence signal is performed. Laser intensity is adjusted if necessary. […]

Compound | EC50 [nM]
COc1cccc(Cn2cc(C(=O)O)c(=O)c3c(F)ccc(F)c32)c1 [Example 2, 5,8-difluoro-1-(3-methoxybenzyl)-4-oxo-1,4-dihydroquinoline-3-carboxylic acid] | 4200
O=C(O)c1cn(Cc2c(F)cccc2F)c2c(F)ccc(F)c2c1=O [Example 4, 1-(2,6-difluorobenzyl)-5,8-difluoro-4-oxo-1,4-dihydroquinoline-3-carboxylic acid] | 614
COc1ccc(Cn2cc(C(=O)O)c(=O)c3cccc(F)c32)cc1 [Example 5, 8-fluoro-1-(4-methoxybenzyl)-4-oxo-1,4-dihydroquinoline-3-carboxylic acid] | 1150
COc1ccc(Cn2cc(C(=O)O)c(=O)c3cccc(F)c32)cc1C(F)(F)F [Example 44, 8-fluoro-1-[4-methoxy-3-(trifluoromethyl)benzyl]-4-oxo-1,4-dihydroquinoline-3-carboxylic acid] | 793
O=C(O)c1cn(Cc2ccc(C(F)(F)F)cc2)c2c(F)cccc2c1=O [Example 52, 8-fluoro-4-oxo-1-[4-(trifluoromethyl)benzyl]-1,4-dihydroquinoline-3-carboxylic acid] | 975
O=C(O)c1cn(Cc2ccc(O)cc2)c2ccccc2c1=O [Example 71, 1-(4-hydroxybenzyl)-4-oxo-1,4-dihydroquinoline-3-carboxylic acid] | 389
